Calls of active or inactive are those of the source. The calls are words filed in the database; no cut-off is given here.
Assays:
Rattus norvegicus [1] = assay: Tested for the effect on calcium homeostasis in rats dosed up to 100 ug/kg daily for 7 days; Compound was found to show no effect; format: functional, organism-based
Rattus norvegicus [2] = assay: Tested for the hypercalciuria effect at 0.5 ug/kg by 1,25-(OH)2D3 for 7 days up to 100 ug/kg; compound produced marked hypercalciuria at 0.5 ug/kg; format: functional, organism-based

**Q.** What does the source list for `C=C1/C(=C\C=C2/CCC[C@]3(C)[C@@H]([C@H](C)C#C[C@@H](O)C4CC4)CC[C@@H]23)C[C@@H](O)C[C@@H]1O`?
**A.** Activity (Rattus norvegicus [1]): inactive; Activity (Rattus norvegicus [2]): Marked hypercalciuria at 0.5 ug/kg

From ChEMBL document CHEMBL1126543, “1,24S-dihydroxy-26,27-cyclo-22-yne-vitamin D3: the side chain triple bond analogue of MC 903 (calcipotriol)” (Bioorg Med Chem Lett, 1993)
